Reference: article PMC12362244, “Fidelity, specialization, and evolution of Paramecium PolX DNA polymerases involved in programmed double-strand break DNA repair” (Nucleic Acids Research, 2025)

Legend:
PolXcΔNter = molecular target: T1, PolXcΔNter (Paramecium tetraurelia, UniProt A0DCU7); assay: gap-filling, FAM-primer urea-PAGE; type: biochemical; conditions: gap with nick in template strand; 1 nM enzyme, 1 mM dGTP, 5 mM MgCl2, pH 7.5, 27°C
T1 construct: gene GSPATT00015723001; lacks residues 1-266 (BRCT and linker); cleavable N-terminal 14-His tag; E. coli BL21 Star (DE3)
T1 sequence (A0DCU7 267-608): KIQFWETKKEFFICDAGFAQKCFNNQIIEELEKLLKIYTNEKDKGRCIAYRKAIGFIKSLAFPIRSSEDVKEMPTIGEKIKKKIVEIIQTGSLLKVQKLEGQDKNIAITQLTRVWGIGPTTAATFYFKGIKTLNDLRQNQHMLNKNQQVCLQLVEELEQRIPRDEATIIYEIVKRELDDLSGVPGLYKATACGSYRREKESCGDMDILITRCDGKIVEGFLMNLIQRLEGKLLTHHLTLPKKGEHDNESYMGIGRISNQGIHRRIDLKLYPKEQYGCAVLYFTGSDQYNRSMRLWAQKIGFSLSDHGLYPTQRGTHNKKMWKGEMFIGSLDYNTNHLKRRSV

HsPolλ = molecular target: T2, HsPolλ (Homo sapiens, UniProt Q9UGP5); assay: gap-filling, FAM-primer urea-PAGE; type: biochemical; conditions: continuous template strand; 50 nM enzyme, 1 mM dGTP, 5 mM MgCl2, pH 7.5, 37°C
T2 construct: gene POLL; wild type; cleavable N-terminal 14-His tag; E. coli
T2 sequence (Q9UGP5 1-575): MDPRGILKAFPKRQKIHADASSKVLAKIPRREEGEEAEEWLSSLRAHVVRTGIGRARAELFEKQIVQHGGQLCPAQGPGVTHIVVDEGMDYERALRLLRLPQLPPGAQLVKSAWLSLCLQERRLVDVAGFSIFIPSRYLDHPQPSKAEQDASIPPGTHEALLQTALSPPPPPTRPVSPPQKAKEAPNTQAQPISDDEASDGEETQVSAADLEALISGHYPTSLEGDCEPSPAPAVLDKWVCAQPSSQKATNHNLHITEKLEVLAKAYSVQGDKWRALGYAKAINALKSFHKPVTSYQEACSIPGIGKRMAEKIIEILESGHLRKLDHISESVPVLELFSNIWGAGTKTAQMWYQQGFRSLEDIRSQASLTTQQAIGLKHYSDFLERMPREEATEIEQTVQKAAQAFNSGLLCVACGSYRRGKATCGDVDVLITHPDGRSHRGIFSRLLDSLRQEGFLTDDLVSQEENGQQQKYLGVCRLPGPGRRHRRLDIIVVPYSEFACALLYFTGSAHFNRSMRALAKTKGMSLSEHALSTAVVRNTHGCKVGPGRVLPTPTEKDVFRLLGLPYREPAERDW

Nc1nc2c(ncn2[C@H]2C[C@H](O)[C@@H](COP(=O)(O)OP(=O)(O)OP(=O)(O)O)O2)c(=O)[nH]1 [dGTP]
gap-filling, FAM-primer urea-PAGE (PolXcΔNter): PolXaΔNter, PolXbΔNter, and PolXcΔNter displayed the highest apparent activity | gap-filling, FAM-primer urea-PAGE (HsPolλ): display gap-filling activity similar to hPolλ when using a continuous template strand
